# Molecular target: T1, human Edg-1 receptor (Homo sapiens, UniProt P21453)
# T1 construct: expressed in transfected cells; membrane preparation
# Experiment: GTP-γ-S assay using human Edg-1 receptors (scintillation proximity assay, CHO Flp-In cell membrane preparation)
# Type: biochemical
# Conditions: test compound at 10 μM; 10 μM S1P high control regarded as 100% activation; triplicate
# Excerpt: Determination of the Pharmacological Activity A) GTP-γ-S Assay Using Human Edg-1 Receptors
# In order to determine the Edg-1 receptor activation by the compounds of the invention, a GTP-γ-S (guanosine 5′-[γ-thio]triphosphate) assay for G-protein coupled receptor binding based on the scintillation proximity assay principle was used, employing a cell membrane preparation from a CHO Flp-In cell line which constitutively overexpresses the human Edg-1 receptor.
# A membrane preparation was obtained by standard methods from the afore-described CHO Flp-In cell line constitutively overexpressing the human Edg-1 receptor. Briefly, the cryopreserved cells were taken in culture and grown until confluency in T175 cell culture flasks (Becton Dickinson, cat. no. 35 5001). Cell culture was stopped by washing with calcium-free phosphate-buffered saline (PBS; Gibco, cat. no. 14190), and cells were harvested with a rubber-policeman in 4° C. cold and calcium-free PBS supplemented with a protease inhibitor cocktail (complete protease inhibitor; Roche, cat. no. 1697498; 1 tablet per 50 ml) and subsequently centrifuged at 4° C. for 15 min at 1100×g (Heraeus Minifuge T). For cell lysis, the pellet was resuspended in a 4° C. cold hypotonic buffer consisting of 5 mM HEPES (Sigma-Aldrich, cat. no. H-0981), 1 mM EDTA (disodium salt; Merck, cat. No. 8418) supplemented with protease inhibitor cocktail (as above) in which cells were stored for another 15 min on ice. After lysis, cells were centrifuged at 4° C. for 10 min at 400×g (Heraeus Minifuge T). The pellet was disrupted in a Dounce homogenizer, diluted with the supernatant of the previous centrifugation and subsequently centrifuged at 4° C. for 10 min at 500×g (Heraeus Minifuge T) in order to separate nuclei and still intact cells from the membranes mainly present in the supernatant. The supernatant was then diluted in hypotonic buffer and centrifuged (Beckmann, Avanti J251) at approximately 18600×g for 2 h at 4° C. After centrifugation, the membrane pellet was resuspended in a storing buffer consisting of 20 mM HEPES; 150 mM NaCl (Merck, cat. no. 6400), 1 mM EDTA (as above) supplemented with protease inhibitor cocktail (as above). The membrane preparation was aliquoted and stored at −80° C. Protein concentration of the membrane preparation was determined in a sample by means of a commercial protein assay (Bio-Rad, DC Protein Assay, cat. nos. 500-0113, 500-0114, 500-0115).
# The Edg-1 membrane preparation obtained in (b) was employed in a commercially available scintillation proximity assay (SPA) kit for G-protein coupled receptor binding from Amersham Biosciences/GE Healthcare (code RPNQ0210), in which ligand-induced binding of ^35S-radiolabled GTP-γ-S to the receptor-containing membrane, which is bound to scintillation beads, stimulates the emission of light and allows to quantify the in vitro activity of the Edg-1 agonistic compound. The assay was performed on a 96-well plate scale substantially according to the manufacturer's instructions. Before start of the experiments, scintillation beads were suspended in a reconstitution buffer consisting of Tris-HCl (pH 7.4) supplemented with 0.1% (w/v) sodium azide and subsequently diluted on ice with assay buffer (consisting of 20 mM HEPES, 100 mM NaCl, 1 mM EDTA (as above), 1 mM dithiothreitol (DTT), adjusted to pH 7.4) to a final bead concentration of 30 mg/ml.
# Wells were charged with 10 μl of the specified assay buffer, 10 μl of a 100 μM guanosine diphosphate (GDP) solution, and 10 μl of a solution of the test compound in assay buffer/dimethylsulfoxide resulting in a final concentration of the test compound of 10 μM. For the high controls, 10 μl of a solution of sphingosine-1-phosphate (S1P; Sigma, cat. no. S-9666), resulting in a final S1P concentration of 10 μM, and for the low controls 10 μl of assay buffer, was added into respective wells instead of the solution of the test compound. All wells contained equivalent amounts of dimethylsulfoxide. […]
# T1 sequence (P21453 whole entry): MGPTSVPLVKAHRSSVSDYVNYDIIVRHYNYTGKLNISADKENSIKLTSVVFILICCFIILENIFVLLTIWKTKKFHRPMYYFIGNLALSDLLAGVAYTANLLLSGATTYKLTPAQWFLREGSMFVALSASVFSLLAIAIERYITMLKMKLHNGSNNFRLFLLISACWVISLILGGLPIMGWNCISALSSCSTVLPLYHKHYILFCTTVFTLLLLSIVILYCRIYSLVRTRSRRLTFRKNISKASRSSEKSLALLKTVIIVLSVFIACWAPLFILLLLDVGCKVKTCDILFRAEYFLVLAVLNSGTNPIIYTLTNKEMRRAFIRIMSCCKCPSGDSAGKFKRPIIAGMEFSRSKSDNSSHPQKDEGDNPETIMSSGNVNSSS
row,SMILES,% Activation (Edg-1 receptor activation in percent of the activation by 10 μM S1P) [%]
1,"Cc1cc(-c2nc3cnc(Oc4cccc(Cl)c4)nc3o2)cc(C)c1OCC(=O)O [Example 8, {4-[5-(3-chloro-phenoxy)-oxazolo[5,4-d]pyrimidin-2-yl]-2,6-dimethyl-phenoxy}-acetic acid]",74

# Same assay, conditions: test compound at 10 μM; 10 μM S1P high control regarded as 100% activation; triplicate; read-out: % Activation (Edg-1 receptor activation in percent of the activation by 10 μM S1P)
row,SMILES,activation at 10 µM [%]
1,"Cc1cc(-c2nc3cnc(Oc4cc(F)ccc4F)nc3o2)cc(C)c1OCC(=O)O [Example 4, {4-[5-(2,5-difluoro-phenoxy)-oxazolo[5,4-d]pyrimidin-2-yl]-2,6-dimethyl-phenoxy}-acetic acid]",103
2,"Cc1ccc(Oc2ncc3nc(-c4cc(C)c(OCC(=O)O)c(C)c4)oc3n2)c(F)c1 [Example 5, {4-[5-(2-fluoro-4-methyl-phenoxy)-oxazolo[5,4-d]pyrimidin-2-yl]-2,6-dimethyl-phenoxy}-acetic acid]",101
3,"Cc1cc(-c2nc3cnc(Oc4ccc(F)cc4F)nc3o2)cc(C)c1OCC(=O)O [Example 3, {4-[5-(2,4-difluoro-phenoxy)-oxazolo[5,4-d]pyrimidin-2-yl]-2,6-dimethyl-phenoxy}-acetic acid]",95
4,"O=C(O)/C=C/c1ccc(-c2nc3cnc(Oc4ccccc4F)nc3o2)cc1 [Example 2, (E)-3-{4-[5-(2-Fluoro-phenoxy)-oxazolo[5,4-d]pyrimidin-2-yl]-phenyl}-acrylic acid]",83
5,"Cc1cc(-c2nc3cnc(Oc4ccccc4)nc3o2)cc(C)c1OCC(=O)O [Example 1, [2,6-Dimethyl-4-(5-phenoxy-oxazolo[5,4-d]pyrimidin-2-yl)-phenoxy]-acetic acid]",116
6,"Cc1cc(-c2nc3cnc(Oc4ccccc4F)nc3o2)cc(C)c1OCC(=O)O [Example 6, {4-[5-(2-fluoro-phenoxy)-oxazolo[5,4-d]pyrimidin-2-yl]-2,6-dimethyl-phenoxy}-acetic acid]",110
7,"Cc1cc(-c2nc3cnc(Oc4ccccc4F)nc3o2)cc(C)c1OC(C)C(=O)O (stereo not drawn) [Example 7, 2-{4-[5-(2-fluoro-phenoxy)-oxazolo[5,4-d]pyrimidin-2-yl]-2,6-dimethyl-phenoxy}-propionic acid]",84

# More lines, now with the values ahead:
row,activation at 10 µM [%],SMILES
1,46,"Cc1cc(-c2nc3cnc(OC4CCCC4)nc3o2)cc(C)c1OCC(=O)O [Example 12, [4-(5-cyclopentyloxy-oxazolo[5,4-d]pyrimidin-2-yl)-2,6-dimethyl-phenoxy]-acetic acid]"
2,87,"Cc1ccc(Oc2ncc3nc(-c4cc(C)c(OCC(=O)O)c(C)c4)oc3n2)cc1F [Example 9, {4-[5-(3-fluoro-4-methyl-phenoxy)-oxazolo[5,4-d]pyrimidin-2-yl]-2,6-dimethyl-phenoxy}-acetic acid]"
3,112,"Cc1ccc(F)cc1Oc1ncc2nc(-c3cc(C)c(OCC(=O)O)c(C)c3)oc2n1 [Example 10, {4-[5-(5-fluoro-2-methyl-phenoxy)-oxazolo[5,4-d]pyrimidin-2-yl]-2,6-dimethyl-phenoxy}-acetic acid]"
4,105,"Cc1cc(-c2nc3cnc(Oc4ccc(Cl)cc4)nc3o2)cc(C)c1OCC(=O)O [Example 11, {4-[5-(4-chloro-phenoxy)-oxazolo[5,4-d]pyrimidin-2-yl]-2,6-dimethyl-phenoxy}-acetic acid]"

# Reference: patent US8846692B2, “Carboxylic acid derivatives having a 2,5-substituted oxazolopyrimidine ring” (Sanofi, priority 2010, dated 2014)
